Laboratory results reported in US8242145B2, “Cyclic diaryl ether compounds as antagonists of prostaglandin D2 receptors” (Panmira Pharmaceuticals, LLC, priority 2008, dated 2012).

Assays:
[1] = molecular target: T1, recombinant human CRTH2 receptor (Homo sapiens, UniProt Q9Y5Y4); assay: GTPγS binding assay; format: biochemical; details: +HSA; read-out: hDP2 GTPγS μM (+HSA)
T1 construct: expressed in transfected cells
T1 sequence (Q9Y5Y4 1-395): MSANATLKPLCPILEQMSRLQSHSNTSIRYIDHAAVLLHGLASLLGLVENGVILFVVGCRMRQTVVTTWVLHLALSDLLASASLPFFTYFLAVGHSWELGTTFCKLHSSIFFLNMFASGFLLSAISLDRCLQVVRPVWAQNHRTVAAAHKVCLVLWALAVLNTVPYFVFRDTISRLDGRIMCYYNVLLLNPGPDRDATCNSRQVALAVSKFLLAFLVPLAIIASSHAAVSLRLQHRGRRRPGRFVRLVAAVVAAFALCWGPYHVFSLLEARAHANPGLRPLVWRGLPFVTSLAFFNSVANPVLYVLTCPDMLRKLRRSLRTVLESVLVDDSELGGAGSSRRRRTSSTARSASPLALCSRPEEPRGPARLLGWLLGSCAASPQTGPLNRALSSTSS
Experimental: The ability of a compound to inhibit binding of GTP to DP2 is assessed via a membrane GTPγS assay. CHO cells stably expressing the recombinant human CRTH2 receptor are resuspended in 10 mM Hepes, 7.4 containing 1 mM DTT, lysed and centrifuged at 75,000×g to pellet the membranes. The membranes are resuspended in 10 mM Hepes, 7.4 containing 1 mM DTT and 10% glycerol. Membranes (˜12.5 μg per well) are incubated in 96-well plates with 0.05 nM [^35S]-GTPγS, 80 nM PGD2, 5 μM GDP, and test compound in Assay Buffer (50 mM Hepes, pH 7.4, 100 mM NaCl, 5 mM MgCl2 and 0.2% human serum albumin) for 60 minutes at 30° C. The reactions are terminated by rapid filtration through Whatman GF/B glass fibre filter plates. The filter plates are washed 3 times with 1 ml cold Assay Buffer and dried. Scintillant is then added to the plates and the radioactivity retained on the filters is determined on a Packard TopCount (Perkin Elmer). Specific binding is determined as total radioactive binding minus non-specific binding in the absence of the ligand (80 nM PGD2). IC50s were determined using Graphpad prism analysis of drug titration curves.

[2] = molecular target: T2, human DP1 receptor (Homo sapiens, UniProt Q13258); assay: DP1 radioligand binding assay using [3H]BWA868C; details: hDP1 binding
T2 construct: tissue Biological Specialty Corporation; host or cells: human platelets, membranes
T2 sequence (Q13258 1-359): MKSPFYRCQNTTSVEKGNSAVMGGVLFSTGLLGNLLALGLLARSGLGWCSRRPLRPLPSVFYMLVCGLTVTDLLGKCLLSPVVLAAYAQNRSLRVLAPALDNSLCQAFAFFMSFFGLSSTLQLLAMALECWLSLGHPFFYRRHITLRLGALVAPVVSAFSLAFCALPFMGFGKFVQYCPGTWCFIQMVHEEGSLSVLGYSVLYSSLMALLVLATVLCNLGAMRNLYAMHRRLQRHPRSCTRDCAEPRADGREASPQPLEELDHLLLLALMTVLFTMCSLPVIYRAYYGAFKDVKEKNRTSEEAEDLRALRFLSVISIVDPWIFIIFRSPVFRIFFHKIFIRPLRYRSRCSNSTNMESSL
Method in brief: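 Human platelet membranes (20 μg protein/well) incubated 60 min at room temperature with 2 nM [3H]BWA868C in 50 mM Hepes, 10 mM MnCl2, 1 mM EDTA, ±0.2% human serum albumin, pH 7.4. Bound label measured after filtration; nonspecific binding defined with 10 μM BW A868C. IC50 from titration curves.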

[3] = molecular target: T3, human DP2 receptor (Homo sapiens, UniProt Q9Y5Y4); assay: DP2/CRTH2 radioligand binding assay using [3H]PGD2; details: hDP2 (CRTH2) binding assay
T3 construct: expressed in transfected cells
T3 sequence (Q9Y5Y4 1-395): T1 sequence (Q9Y5Y4 1-395)
Method in brief: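 HEK293 membranes with stable recombinant human DP2, incubated with 1 nM [3H]PGD2 and compound 60 min at room temperature in pH 7.4 HEPES/MnCl2/EDTA buffer, with or without 0.2% human serum albumin.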

IC50 [1] [µM] | IC50 [2] [nM] | IC50 [3] [nM] | Compound
< 0.3 | > 1000 | < 300 | COc1ccc(CC(=O)O)cc1Oc1ccc(Cl)cc1CN1C(=O)O[C@H](c2ccccc2)[C@@H]1C [Compound 1-31, {3-[4-Chloro-2-((4S,5R)-4-methyl-2-oxo-5-phenyl-oxazolidin-3-ylmethyl)-phenoxy]-4-methoxy-phenyl}-acetic acid]
< 0.3 | > 1000 | < 300 | COc1ccc(CC(=O)O)cc1Oc1ccc(C(F)(F)F)cc1CN1C(=O)O[C@H](c2ccccc2)[C@@H]1C [Compound 1-32, {4-Methoxy-3-[2-((4S,5R)-4-methyl-2-oxo-5-phenyl-oxazolidin-3-ylmethyl)-4-trifluoromethyl-phenoxy]-phenyl}-acetic acid]
< 0.3 | > 1000 | < 300 | C[C@H]1[C@@H](c2ccccc2)OC(=O)N1Cc1cc(C(F)(F)F)ccc1Oc1cc(CC(=O)O)ccc1OCc1ccccc1 [Compound 1-33, {4-Benzyloxy-3-[2-((4S,5R)-4-methyl-2-oxo-5-phenyl-oxazolidin-3-ylmethyl)-4-trifluoromethyl-phenoxy]-phenyl}-acetic acid]
> 1 | > 1000 | 300 to 1000 | COc1ccc(CC(=O)O)cc1Oc1ccc(S(C)(=O)=O)cc1CN1C(=O)O[C@H](c2ccccc2)[C@@H]1C [Compound 1-34, {3-[4-Methanesulfonyl-2-((4S,5R)-4-methyl-2-oxo-5-phenyl-oxazolidin-3-ylmethyl)-phenoxy]-4-methoxy-phenyl}-acetic acid]
> 1 | > 1000 | < 300 | COc1ccc(CC(=O)O)cc1Oc1ccc(-c2ccccc2)cc1CN1C(=O)O[C@H](c2ccccc2)[C@@H]1C [Compound 1-35, {4-Methoxy-3-[3-((4S,5R)-4-methyl-2-oxo-5-phenyl-oxazolidin-3-ylmethyl)-biphenyl-4-yloxy]-phenyl}-acetic acid]
> 1 | > 1000 | < 300 | COc1ccc(CC(=O)O)cc1Oc1ccc(-c2ccc(F)cc2)cc1CN1C(=O)O[C@H](c2ccccc2)[C@@H]1C [Compound 1-36, {3-[4′-Fluoro-3-((4S,5R)-4-methyl-2-oxo-5-phenyl-oxazolidin-3-ylmethyl)-biphenyl-4-yloxy]-4-methoxy-phenyl}-acetic acid]
< 0.3 | > 1000 | < 300 | COc1ccc(CC(=O)O)cc1Oc1ccc(-c2ccccc2OC)cc1CN1C(=O)O[C@H](c2ccccc2)[C@@H]1C [Compound 1-37, {4-Methoxy-3-[2′-methoxy-3-((4S,5R)-4-methyl-2-oxo-5-phenyl-oxazolidin-3-ylmethyl)-biphenyl-4-yloxy]-phenyl}-acetic acid]
0.3 to 1 | > 1000 | < 300 | COc1cccc(-c2ccc(Oc3cc(CC(=O)O)ccc3OC)c(CN3C(=O)O[C@H](c4ccccc4)[C@@H]3C)c2)c1 [Compound 1-38, {4-Methoxy-3-[3′-methoxy-3-((4S,5R)-4-methyl-2-oxo-5-phenyl-oxazolidin-3-ylmethyl)-biphenyl-4-yloxy]-phenyl}-acetic acid]
> 1 | > 1000 | < 300 | COc1ccc(-c2ccc(Oc3cc(CC(=O)O)ccc3OC)c(CN3C(=O)O[C@H](c4ccccc4)[C@@H]3C)c2)cc1 [Compound 1-39, {4-Methoxy-3-[4′-methoxy-3-((4S,5R)-4-methyl-2-oxo-5-phenyl-oxazolidin-3-ylmethyl)-biphenyl-4-yloxy]-phenyl}-acetic acid]
< 0.3 | > 1000 | < 300 | COc1ccc(CC(=O)O)cc1Oc1ccc(-c2cccnc2)cc1CN1C(=O)O[C@H](c2ccccc2)[C@@H]1C [Compound 1-40, {4-Methoxy-3-[2-((4S,5R)-4-methyl-2-oxo-5-phenyl-oxazolidin-3-ylmethyl)-4-pyridin-3-yl-phenoxy]-phenyl}-acetic acid]
0.3 to 1 | > 1000 | < 300 | COc1ccc(CC(=O)O)cc1Oc1ccc(-c2ccncc2)cc1CN1C(=O)O[C@H](c2ccccc2)[C@@H]1C [Compound 1-41, {4-Methoxy-3-[2-((4S,5R)-4-methyl-2-oxo-5-phenyl-oxazolidin-3-ylmethyl)-4-pyridin-4-yl-phenoxy]-phenyl}-acetic acid]
< 0.3 | > 1000 | < 300 | COc1ccc(CC(=O)O)cc1Oc1ccc(-c2cn[nH]c2)cc1CN1C(=O)O[C@H](c2ccccc2)[C@@H]1C [Compound 1-42, {4-Methoxy-3-[2-((4S,5R)-4-methyl-2-oxo-5-phenyl-oxazolidin-3-ylmethyl)-4-(1H-pyrazol-4-yl)-phenoxy]-phenyl}-acetic acid]
0.3 to 1 | > 1000 | < 300 | COc1ccc(CC(=O)O)cc1Oc1ccc(-c2cnn(C)c2)cc1CN1C(=O)O[C@H](c2ccccc2)[C@@H]1C [Compound 1-43, {4-Methoxy-3-[2-((4S,5R)-4-methyl-2-oxo-5-phenyl-oxazolidin-3-ylmethyl)-4-(1-methyl-1H-pyrazol-4-yl)-phenoxy]-phenyl}-acetic acid]
0.3 to 1 | > 1000 | < 300 | COc1ccc(C(C)C(=O)O)cc1Oc1ccc(C(F)(F)F)cc1CN1C(=O)O[C@H](c2ccccc2)[C@@H]1C (stereo partly drawn) [Compound 1-44, 2-{4-Methoxy-3-[2-((4S,5R)-4-methyl-2-oxo-5-phenyl-oxazolidin-3-ylmethyl)-4-trifluoromethyl-phenoxy]-phenyl}-propionic acid]
< 0.3 | > 1000 | < 300 | O=C(O)Cc1cccc(Oc2ccc(Br)cc2CN2C(=O)OC[C@@H]2c2ccccc2)c1 [Compound 1-45, {3-[4-Bromo-2-((S)-2-oxo-4-phenyl-oxazolidin-3-ylmethyl)-phenoxy]-phenyl}-acetic acid]
< 0.3 | > 1000 | < 300 | O=C(O)Cc1cccc(Oc2ccc(Br)cc2CN2C(=O)OC[C@@H]2Cc2ccccc2)c1 [Compound 1-46, {3-[2-((S)-4-Benzyl-2-oxo-oxazolidin-3-ylmethyl)-4-bromo-phenoxy]-phenyl}-acetic acid]
< 0.3 | 300 to 1000 | < 300 | O=C(O)Cc1cccc(Oc2ccc(Br)cc2CN2C[C@@H](c3ccccc3)OC2=O)c1 [Compound 1-47, {3-[4-Bromo-2-((R)-2-oxo-5-phenyl-oxazolidin-3-ylmethyl)-phenoxy]-phenyl}-acetic acid]
> 1 | 300 to 1000 | < 300 | O=C(O)Cc1cccc(Oc2ccc(Br)cc2CN2C[C@H](c3ccccc3)OC2=O)c1 [Compound 1-48, {3-[4-Bromo-2-((S)-2-oxo-5-phenyl-oxazolidin-3-ylmethyl)-phenoxy]-phenyl}-acetic acid]
< 0.3 | < 300 | < 300 | C[C@@H]1[C@H](c2ccccc2)OC(=O)N1Cc1cc(Br)ccc1Oc1cccc(CC(=O)O)c1 [Compound 1-49, {3-[4-Bromo-2-((4R,5S)-4-methyl-2-oxo-5-phenyl-oxazolidin-3-ylmethyl)-phenoxy]-phenyl}-acetic acid]
0.3 to 1 | 300 to 1000 | < 300 | C[C@@H]1[C@H](c2ccc(Cl)cc2)OC(=O)N1Cc1cc(Br)ccc1Oc1cccc(CC(=O)O)c1 [Compound 1-50, (3-{4-Bromo-2-[(4R,5S)-5-(4-chloro-phenyl)-4-methyl-2-oxo-oxazolidin-3-ylmethyl]-phenoxy}-phenyl)-acetic acid]
< 0.3 | 300 to 1000 | < 300 | C[C@@H]1[C@H](c2cc(F)cc(F)c2)OC(=O)N1Cc1cc(Br)ccc1Oc1cccc(CC(=O)O)c1 [Compound 1-51]
